Laboratory results: publication PMC6270814, “Effects of Ursolic Acid Derivatives on Caco-2 Cells and Their Alleviating Role in Streptozocin-Induced Type 2 Diabetic Rats” (Molecules, 2014)

How the values were obtained:
SGLT-1 = test: Western blot of SGLT-1 protein expression in Caco-2 cells; assay type: cell-based, Human; details: 100 μM, 6 h
Experimental: Caco-2 cells were cultured on 6-well plates at a density of 1 × 10^6 cells/well for 13 days. The cells were placed in serum-free medium for 24 h prior to the treatment. Then UA and its derivatives (100 μM) were added, after 6 h incubation, the cells were immediately washed three times with ice-cold PBS and lysed in 200 μL lysis buffer. Cells were allowed to lyse on ice, and then scraped, vortexed, sonicated and stored at −80 °C for further analysis. Protein concentrations were determined as described and cell lysate was subjected to western blot analysis. Briefly, proteins with same amount were denatured in sample buffer, separated on 8% SDS-PAGE gel, and transferred onto a polyvinylidene diflouride membrane. […] Membranes were then incubated overnight at 4 °C in blocking buffer with antibodies for GLUT-2, SGLT-1 and β-actin (EMD, Millipore, Billerica, MA, USA). Membranes were washed with TBST and incubated 1 h with appropriate secondary antibodies. Revelation was performed by using the enhanced chemiluminescence reagent and blue-light sensitive film. Densitometric analysis of films was performed with a Hewlett-Packard scanner equipped with a transparent adaptor and UN-SCAN-IT software.

GLUT-2 = test: Western blot of GLUT-2 protein expression in Caco-2 cells; assay type: cell-based, Human; details: 100 μM, 6 h
Experimental: Caco-2 cells were cultured on 6-well plates at a density of 1 × 10^6 cells/well for 13 days. The cells were placed in serum-free medium for 24 h prior to the treatment. Then UA and its derivatives (100 μM) were added, after 6 h incubation, the cells were immediately washed three times with ice-cold PBS and lysed in 200 μL lysis buffer. Cells were allowed to lyse on ice, and then scraped, vortexed, sonicated and stored at −80 °C for further analysis. Protein concentrations were determined as described and cell lysate was subjected to western blot analysis. Briefly, proteins with same amount were denatured in sample buffer, separated on 8% SDS-PAGE gel, and transferred onto a polyvinylidene diflouride membrane. The membranes were blocked for 1 h at 37 °C with 10% defatted milk in Tris-buffered saline (10 mM Tris-HCl, pH 7.5 and 137 mM NaCl) containing 0.05% Tween 20 (TBST). Membranes were then incubated overnight at 4 °C in blocking buffer with antibodies for GLUT-2, SGLT-1 and β-actin (EMD, Millipore, Billerica, MA, USA). Membranes were washed with TBST and incubated 1 h with appropriate secondary antibodies. Revelation was performed by using the enhanced chemiluminescence reagent and blue-light sensitive film. Densitometric analysis of films was performed with a Hewlett-Packard scanner equipped with a transparent adaptor and UN-SCAN-IT software.

[1] = test system: STZ-induced diabetic rats; test: Fasting blood glucose in STZ-induced diabetic rats, 4 weeks treatment; assay type: in vivo, rat
Experimental: Adult male albino rats of Sprague-Dawley rats (180–220 g) were obtained from the Guangdong Medical Lab Animal Center, and maintained under standard laboratory conditions in a temperature (25–30 °C) and light-controlled (12-h light/dark cycle) room with 35%–60% humidity. The animals were acclimatized for 10 days before the experiments and provided with rodent chow and water ad libitum. The investigation was conducted in accordance with the Guide for the Care and Use of Laboratory Animals and approved by the institutional Animal Ethics Committee.
(§1) Diabetes was induced by a single intraperitoneal injection of streptozotocin (Sigma-Aldrich, St. Louis, MO, USA) at a dose of 65 mg/kg body weight. STZ was dissolved in 0.1 M cold citrate buffer, pH 4.5. Control group were injected with citrate buffer alone. After 7 days for the development of diabetes, plasma glucose levels were determined of each rat. Rats with fasting blood glucose (FBG) range of above 16.7 mmol/L were considered as DM rats and were used for further study.
(§2) According to the body weight and plasma glucose levels the rats were divided randomly into seven groups with six rats each and treated as follows: • Group I: Normal rats treated with 0.5% CMC-Na (2 mL/200 g body weight). • Group II: Diabetic rats treated with 0.5% CMC-Na. • Group III: Diabetic rats treated with 10 mg/kg of glibenclamide. • Group IV: Diabetic rats treated with 100 mg/kg of compound 1 (UA). • Group V: Diabetic rats treated with 100 mg/kg of compound 10. • Group VI: Diabetic rats treated with 100 mg/kg of compound 11. • Group VII: Diabetic rats treated with 100 mg/kg of compound 12.
(§3) The treatment was continued daily for 28 days. Blood glucose levels and body weight were measured every week to ascertain the status of diabetes. After 4 weeks of treatment, the animals were fasted for 12 h and sacrificed by cervical dislocation under mild anaesthetization, blood was collected into heparinized tubes and centrifuged at 2,000 rpm for 10 min. Livers and kidneys were removed, washed and homogenized in ice-cold normal saline. This homogenates were centrifuged at 3,000 rpm for 10 min at 4 °C, and the supernatants were collected for the estimate of antioxidant markers.
Fasting blood glucose levels were estimated on days 0, 7, 14, 28 with the single touch glucometer (Life Scan, Johnson & Johnson Company, New Brunswick, NJ, USA). Serum insulin level was measured by use of a commercial immunoassay kit by enzyme linked immunosorbent assay (Uscn. Life Science Inc., Wuhan, China). Serum total protein, albumin, triglycerides (TG), total cholesterol (TC), high-density lipoprotein cholesterol (HDL-C), and low-density lipoprotein cholesterol (LDL-C) were measured with an automatic biochemical analyzer (Sinnowa D240, Nanjing, China).

[2] = test system: STZ-induced diabetic rats; test: Oxidative stress markers (GSH, SOD, MDA) in liver and kidney of STZ-induced diabetic rats; assay type: in vivo, rat; details: 4 weeks
Experimental: as §1, §2, §3
The tissue homogenates of liver and kidney were used for the estimate of antioxidant markers. Glutathione (GSH) level was measured with 5, 5'-dithiobis-(2-nitrobenzoic acid) (DTNB) as described by Sedlak and Lindsay. Superoxide dismutase (SOD) activity was assessed according to the method of Sinha. Malondialdehyde (MDA) activity was estimated with the thiobarbituric acid method.

## CCC(=O)O[C@H]1CC[C@@]2(C)C(CC[C@]3(C)C2CC=C2C4[C@@H](C)[C@H](C)CC[C@]4(C(=O)O)CC[C@]23C)C1(C)C (some centres unmarked) [Compound 10]
SGLT-1
  effect on protein expression of SGLT-1: significantly reduce
GLUT-2
  effect on expression of protein GLUT-2: significant effects on reducing
[1]; STZ diabetic rats, Week 0 (before treatment), compounds 100 mg/kg, glibenclamide 10 mg/kg, n = 6
  Fasting Blood Glucose Level, Week 0: 320.40 ± 12.96 mg/dL
[1]; STZ diabetic rats, Week 1, compounds 100 mg/kg, glibenclamide 10 mg/kg daily, n = 6
  Fasting Blood Glucose Level, Week 1: 270.00 ± 16.74 mg/dL
[1]; STZ diabetic rats, Week 2, compounds 100 mg/kg, glibenclamide 10 mg/kg daily, n = 6
  Fasting Blood Glucose Level, Week 2: 286.20 ± 18.90 mg/dL
[1]; STZ diabetic rats, Week 3, compounds 100 mg/kg, glibenclamide 10 mg/kg daily, n = 6
  Fasting Blood Glucose Level, Week 3: 234.00 ± 14.58 mg/dL
[1]; STZ diabetic rats, Week 4, compounds 100 mg/kg, glibenclamide 10 mg/kg daily, n = 6
  Fasting Blood Glucose Level, Week 4: 225.00 ± 11.70 mg/dL
[1]; end of the 4 week treatment, compound 10 100 mg/kg, glibenclamide 10 mg/kg
  decrease in blood glucose levels as compared with diabetic control: 49.6%
[2]; liver and kidney of STZ diabetic rats
  SOD level in the liver and kidney: great improvement
[2]; liver of STZ diabetic rats
  GSH level in liver: significant effects
[2]; liver of STZ diabetic rats, daily administration
  MDA level in the liver: obviously down-regulated
